Series [1] concerns HS683 cells. Kind of series: Clonogenic cell survival assay after BNCT (thermal neutron irradiation) in vitro. It is filed as cell-based, human. The note with it: 5 mM drug for 12 h, neutron flux 3.0 ± 0.4 × 10^11 n/cm^2 in 2 h, colonies after 2 weeks, mean ± SD, three biological repeats. Here is the method:
Thermal neutron radiation was given as described previously ([16]). A high-current proton beam (3.5 MeV) generated from a radio frequency quadrupole (RFQ) accelerator at the China Spallation Neutron Source was used to bombard a lithium target and produce thermal neutrons (0.5 eV-10 keV) for BNCT.
HS683 cells (10^6/sample) were prepared in centrifuge tubes (1.5 mL, Eppendorf) and treated with ANG-B, TAT-B, T7-B, or BPA at various concentrations (0.0–5.0 mM) for 12 h. Epithermal neutrons were given with a total neutron flux of 3.0 ± 0.4 × 10^11 n/cm^2 given in 2 h. The drug-containing medium was then washed off and desirable numbers of cells in single-cell suspension were seeded into 6-well plates to grow colonies in 2 weeks. Colonies were fixed in 70% ethanol at room temperature for 10 min, and stained with 0.1% crystal violet. Colonies with more than 50 cells were scored as clonogenic survivors.
BNCT eliminates cancer cells by heavy charged particle rays, where reproductive cell death plays a vital role in the treatment outcome ([17], [18]). Here we employed the clonogenic survival assay to analyze the reproductive cell death of glioma cells after BNCT treatment in vitro. To guarantee the performance of BNCT in vitro, we designed and manufactured a tube-holding device for thermal neutron irradiation of cells (Figure 2A). BNCT with these boron delivery agents were tested on HS683 cells. […] BNCT with 5 mM ANG-B caused 86.5% ± 5.3% of clonogenic cell death. […] Therefore, ANG-B was selected for the following in vivo study.

Series [2] in a line: Boron biodistribution in intracranial glioma mouse model (ICP-AES). It is filed as in vivo. How it is done:
The glioma mouse model was established as reported recently ([16]). HS683 cells were transfected with luciferase-expressing vector (Lenti-UTR-Luc-Blank Vector; Promega). BALB/c nude mice were anesthetized by intraperitoneal injection of tribromoethanol (150 mg/kg) and then placed in a stereotaxic instrument. A hole was made in the mouse skull and 5 μL of HS683 cell suspension (2 × 10^7 cells/mL) was injected into the brain using the stereotaxic instrument. The growth state of glioma tumours in mice was monitored by bioluminescent imaging (IVIS 3D Perkin Elmer). Animal experiments were performed according to the protocols approved by the Animal Use Review Board and Ethical Committee of Shenzhen Bay Laboratory (permit no. AFRQS202101). After treatment with boronated peptides or BPA (HEC Pharm, Dongguan, China), boron concentrations in human cells or mice tissues were measured by inductively coupled plasma atomic emission spectroscopy (abbr., ICP-AES; Leeman’s Prodigy 7) using published methods ([16]). Proper microenvironmental components are critical for the treatment response of glioma ([19], [20]). Thus, we constructed an intracranial mouse glioma model based on HS683 cells and a research plan based on this model for testing ANG-B effects (Figure 3A). In order to monitor the intracranial tumour growth, we used luciferase-expressing cells for this mouse model (Supplementary Figure S5A). Boron biodistribution was examined at the time point for thermal neutron irradiation. 2.5 mM/kg of ANG-B or BPA (in 5% fructose solution) was injected into mice, and tissues or organs from the tumour, blood, brain, lung, liver, heart, spleen, and kidney were then collected at indicated time points for measuring boron concentrations (Supplementary Figure S5B). […] At 4 h after drug injection, the T/N ratio of ANG-B was 5.61 ± 1.0 and the T/B ratio was 9.42 ± 2.47.

Series [3] relates to HS683 intracranial glioma. As to the kind of experiment: In vivo BNCT in intracranial glioma mouse model, 18F-FDG PET/CT. The note with it: for SUV (18F-FDG uptake) in tumour tissues after BNCT, compared to control group: PET/CT, p < 0.05. Here is the method: The glioma mouse model was established as reported recently ([16]). HS683 cells were transfected with luciferase-expressing vector (Lenti-UTR-Luc-Blank Vector; Promega). BALB/c nude mice were anesthetized by intraperitoneal injection of tribromoethanol (150 mg/kg) and then placed in a stereotaxic instrument. A hole was made in the mouse skull and 5 μL of HS683 cell suspension (2 × 10^7 cells/mL) was injected into the brain using the stereotaxic instrument. The growth state of glioma tumours in mice was monitored by bioluminescent imaging (IVIS 3D Perkin Elmer). Animal experiments were performed according to the protocols approved by the Animal Use Review Board and Ethical Committee of Shenzhen Bay Laboratory (permit no. AFRQS202101).
During BNCT, five mice per group were injected with 2.5 mM/kg of BPA (5% fructose solution) or ANG-B solution through the tail vein. 90 min later, mice were anesthetized with an intraperitoneal injection of tribromoethanol at a dose of 150 mg/kg and then fixed in a mould for BNCT irradiation of the mouse head using a published method ([16]). Mice were treated with 2 kW of neutron flux for 2 h each time and four times for each mouse in 1 week, to achieve a total neutron flux of 12.5 ± 0.5 × 10^11 n/cm^2. Mice were anesthetized with 2% isoflurane at 25°C and imaged with PET/CT (nanoSCAN, Mediso) with 1.5 uCi/g ^18F-FDG at 1 day before or 31 days after BNCT. Image processing and analyses were performed by AMIDE (RRID: SCR_005940), where ROI, SUV values, and tumour volume were determined.
The glioma mouse model was further used in BCNT tests for ANG-B. The body weight of all the used mice was monitored during the whole process, where no obvious health issues with body weight loss were noticed (Supplementary Figure S6A). PET imaging is usually used to evaluate therapeutic response of glioma patients or mouse models ([16], [21], [22]). Therefore, we employed ^18F-FDG-based PET/CT to estimate intracranial tumour volume for each mouse 1 day before and 31 days after BNCT treatments (Figure 4A). An additional lower concentration of ANG-B at 1 mM/kg (i.e., ANG-B low) was included for comparison.

The next series relates to U87MG cells. As to the kind of experiment: Boron uptake in cells by ICP-AES. It is filed as cell-based, human. The note with it: 0–0.8 mM for 12 h. How it is done:
(§1) Cell lines established from human glioma (U87MG, U251, and HS683), melanoma (A375), non-small cell lung cancer (A549), and hepatocellular carcinoma (HepG2) were obtained from the National Infrastructure of Cell Line Resource in China, authenticated, and cultured in DMEM, supplemented with 10% fetal bovine serum (HyClone) and 100 IU/mL penicillin/streptomycin (all Sigma-Aldrich unless otherwise noted). Cells were routinely tested for mycoplasma using the Mycoplasma Test Kit (Cellorlab, China). All cells were maintained in a humidified incubator at 5% CO2 and 37°C after defrosting and cultured in the exponential growth phase before each experiment.
(§2) After treatment with boronated peptides or BPA (HEC Pharm, Dongguan, China), boron concentrations in human cells or mice tissues were measured by inductively coupled plasma atomic emission spectroscopy (abbr., ICP-AES; Leeman’s Prodigy 7) using published methods ([16]).
(§3) An efficient boron delivery agent should enhance boron uptake in cancer cells. Thus, we analyzed boron concentrations on 6 human cancer cell lines derived from glioma (U87MG, U251, and HS683), melanoma (A375), non-small cell lung cancer (A549), or hepatocellular carcinoma (HepG2) after treatment with various concentrations of ANG-B, TAT-B, or T7-B for 12 h. BPA was tested in parallel for comparison.
(§4) Figure 1 Boron concentrations in 6 human cell lines derived from glioma (U87MG, U251, and HS683), melanoma (A375), non-small cell lung cancer (A549), or hepatocellular carcinoma (HepG2). Cells were pre-exposed to 0–0.8 mM of ANG-B, TAT-B, T7-B, or BPA for 12 h. Boron concentrations were then analyzed by ICP-AES in HS683 (A), U251 (B), U87MG (C), A375 (D), HepG2 (E), or A549 cells (F). Mean values with standard errors are shown.

For series [4] the following is noted: melanoma patients; cited from earlier work. The source says: Boron delivery agent is one of the critical factors limiting the expansion of BNCT application in cancer treatment. An ideal boron delivery agent should be low toxicity, high tumour uptake, quick blood clearance, T/N ratio > 3, and low accumulation in healthy tissues. Unfortunately, no existing boron delivery agents can fulfil all these requirements. Historically, BPA is the most popular boron delivery agent in clinical BNCT. Cancer cells usually promote cellular amino acid transport and result in increased uptake of BPA, especially in melanoma cells ([27]). A study evaluated the biodistributi ...

Another series relates to A375 cells. As to the kind of experiment: Boron uptake in cells by ICP-AES. The format is cell-based, human. The settings on record: A375 cells (printed A357), 0–0.8 mM for 12 h, p < 0.05. How it is done:
as §1, §2, §3, §4

In series [5] the test system is HS683 cells. As to the kind of experiment: Boron uptake in cells by ICP-AES. It is filed as cell-based, human. The settings on record: 0–0.8 mM for 12 h, p < 0.05. How it is done:
as §1, §2, §3, §4

The subject of the next series is HepG2 cells. As to the kind of experiment: Boron uptake in cells by ICP-AES. The format is cell-based, human. The note with it: 0–0.8 mM for 12 h, p < 0.05. Here is the method: as §1, §2, §3, §4
Series [6] relates to HS683 intracranial glioma. As to the kind of experiment: TUNEL apoptosis assay in mouse tumours after BNCT. It is filed as in vivo. The settings on record: 1 day or 7 days after treatment. Here is the method:
DNA fragmentation in apoptosis induced by BNCT was assessed using the one-step TUNEL apoptosis assay kit following the manufacturer’s protocol (Abbkine Scientific Co., Ltd., China).
In order to evaluate the ^18F-FDG uptake in tumour tissues under different treatment conditions, SUV data were calculated based on a reference region ([23]). […] Based on the 3D PET image data, we also estimated tumour volume before and after BNCT treatment for each mouse (Figure 4B). […] By contrast, tumour size in the control group kept increasing.
Supplementary Figure 6. In vivo effects of ANG-B based BNCT. (A) Body weight of glioma mouse model after treatment. (B) SUVmax analyses (indicating of FDG uptake) of glioma tumors in PET/CT imaging before and after BNCT treatment. (C) Apoptotic cells in tumor at 1 day or 7days after ANG-B based BNCT treatment as measured by TUNEL assay. Mann–Whitney U test; *p < 0.05.

Where [7] appears, read: glioma mouse model, 2.5 mM/kg in 5% fructose solution, time not stated.
Where [8] appears, read: 4 h after tail-vein injection of 2.5 mM/kg, intracranial HS683 glioma mice, ICP-AES, three mice per group.

Consider `N[C@@H](Cc1ccc([10B](O)O)cc1)C(=O)O` [BPA, ^10B-p-boronophenylalanine, reference compound], for which, in the series with HS683 cells [1], the “clonogenic cell death after BNCT” value is on record as 73.3% ± 6.0%. Also, in series [2] (setting [7]), the “T/B ratio of boron” value is reported as “approximately 2” and the “T/N ratio of boron” value is recorded as “approximately 2”. Also, the “SUV (18F-FDG uptake) in tumour tissues after BNCT, compared to control group” value in [3] (2.5 mM/kg) was “significantly decreased SUV”. Moreover, the “boron uptake compared with boronated peptides” value in the series on U87MG cells is on record as “took up more BPA”. For the same compound, in series [4], the T/N ratio was 3.40 and the skin-to-blood ratio is 1.31.

For “MASMTGGQQMG [T7-B, boron-peptide conjugate used as control]”, the “clonogenic cell death after BNCT” value in the series on HS683 cells [1] is listed as 54.5% ± 1.1%.

Turning to “TFFYGGSRGKRNNFKTEEYC [ANG-B, N-terminal boron-containing derivative of angiopep-2 with 10B-4-carboxyphenylboronic acid at N terminus and cysteine at C terminus]”, the “clonogenic cell death after BNCT” value with HS683 cells [1] was 86.5% ± 5.3%. For the same compound, the “glioma-targeting effects and blood clearance compared with BPA” value in [2] (2.5 mM/kg tail vein, 1, 2, 4 or 6 h, glioma mouse model) is listed as “significantly better”. For the same compound, in [2] (setting [8]), the “Tumour/blood (T/B) ratio of boron” value is on record as 9.42 ± 2.47. Moreover, in [2] (setting [8]), the “Tumour/normal (T/N) tissue ratio of boron” value amounted to 5.61 ± 1.0. The “SUV (18F-FDG uptake) in tumour tissues after BNCT, compared to control group” value in series [3] (1 mM/kg (ANG-B low)) and in series [3] (2.5 mM/kg) was “significantly decreased SUV” each time. Also, the “tumour volume at 31 days after BNCT treatment” value in series [3] (2.5 mM/kg, 18F-FDG PET imaging before and after BNCT) is on record as “significantly decreased tumour volume”. The “boron uptake compared with BPA” value in the series on A375 cells, with HS683 cells [5] and in the series on HepG2 cells was “significantly more boron uptake than BPA” each time. Also, the “apoptotic cells in mouse tumours after BNCT” value in series [6] is listed as “more apoptotic cells”.
